Data: ChEMBL document CHEMBL1126920, “Design and synthesis of an orally active macrocyclic neutral endopeptidase 24.11 inhibitor” (J Med Chem, 1993)

These compounds were tested against T1, Neprilysin (Rattus norvegicus, UniProt P07861) (assay: Inhibition of NEP 24.11 from rat kidney).
T1 sequence (P07861 whole entry): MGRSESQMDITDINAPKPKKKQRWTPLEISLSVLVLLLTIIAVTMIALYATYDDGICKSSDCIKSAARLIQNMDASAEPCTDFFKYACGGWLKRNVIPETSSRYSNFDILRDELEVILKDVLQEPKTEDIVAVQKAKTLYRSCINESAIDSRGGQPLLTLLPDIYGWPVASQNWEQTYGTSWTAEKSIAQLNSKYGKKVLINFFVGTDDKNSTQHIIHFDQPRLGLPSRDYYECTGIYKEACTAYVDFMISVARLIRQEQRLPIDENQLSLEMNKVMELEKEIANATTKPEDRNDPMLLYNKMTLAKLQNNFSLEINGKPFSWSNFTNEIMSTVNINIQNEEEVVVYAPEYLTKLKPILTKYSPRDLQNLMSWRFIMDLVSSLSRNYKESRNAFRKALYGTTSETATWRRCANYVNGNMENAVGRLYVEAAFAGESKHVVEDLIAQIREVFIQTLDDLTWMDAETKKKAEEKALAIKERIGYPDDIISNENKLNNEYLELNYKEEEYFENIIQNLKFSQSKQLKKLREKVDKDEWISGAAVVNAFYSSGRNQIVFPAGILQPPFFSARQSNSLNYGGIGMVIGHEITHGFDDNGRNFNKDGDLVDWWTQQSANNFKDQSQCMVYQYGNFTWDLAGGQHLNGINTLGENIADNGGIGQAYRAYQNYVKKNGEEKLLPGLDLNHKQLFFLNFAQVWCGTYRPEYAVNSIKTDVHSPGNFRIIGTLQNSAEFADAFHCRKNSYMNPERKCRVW
Format: tissue-based
Work on CS(=O)(=O)CCCNC(=O)C1CCCCCCC(CS)C(=O)N1 (configuration not stated) yielded an IC50 of 0.063 µM. O=C1NC(C(=O)O)CCCCCCC1CS (single isomer, unassigned; (-)) was tested, and the IC50 was > 1 µM. For O=C1NC(C(=O)N2C[C@H](O)C[C@H]2C(=O)O)CCCCCCC1CS (single isomer, unassigned; (-)), the IC50 was 0.0008 µM. O=C1NC(C(=O)O)CCCCCCC1CS (racemic) was tested, and the IC50 was 0.004 µM. O=C1NC(C(=O)O)CCCCCCC1CS (single isomer, unassigned; (+)) showed an IC50 of 0.003 µM. For O=C1NC(C(=O)NCCOCCO)CCCCCCC1CS (configuration not stated), the IC50 was 0.084 µM. Work on O=C1NC(C(=O)N2CCC[C@H]2C(=O)O)CCCCCCC1CS (some centres not stated) yielded an IC50 of 0.002 µM. Work on O=C1NC(C(=O)Nc2ccccc2)CCCCCCC1CS (configuration not stated) yielded an IC50 of 0.551 µM. Compound O=C1NC(C(=O)Nc2cccnc2)CCCCCCC1CS (configuration not stated) has an IC50 of 0.059 µM. For O=C1NC(C(=O)NCCCO)CCCCCCC1CS (configuration not stated), the IC50 was 0.209 µM. With O=C1NC(C(=O)N[C@H](CO)C(=O)O)CCCCCCC1CS (some centres not stated) the IC50 was 0.011 µM. With NCCCC[C@@H](NC(=O)C1CCCCCCC(CS)C(=O)N1)C(=O)O (some centres not stated) the IC50 was 0.014 µM.
